Source: patent US10278979B2, “Therapeutic agent for intractable leukemia” (RIKEN, priority 2015, dated 2019)
Entries after “also recorded” stand apart in the source; their conditions may differ.

How the values were obtained:
[1] = test system: patient-derived MLL cells (MLL-AF9); test: Leukemia humanized mouse (MLL-AF9), human leukemia cells in peripheral blood; type: in vivo; conditions: MLL-AF9 cases in NSG mice; dexamethasone 70 mg/kg IP daily and/or RK-20449 30 mg/kg IP BID; FIG. 1-3
Text: (§1) NOD. Cg-Prkdc^scid Il2rg^tmlWjl/Sz (NOD/SCID/IL2rg^null, NSG) mice were developed by subjecting a complete null mutation in the Il2rg gene locus to back cross with NOD. Cg-Prkdc^scid (NOD/SCID) lineage, in the Jackson Laboratory (Bar Harbor, Me. state, USA) (Shultz, L. D. et al., Multiple defects in innate and adaptive immunologic function in NOD/LtSz-scid mouse. J. Immunol. 154, 180-191 (1995)). The mice were raised by feeding irradiated food and acidified water in the animal facilities of RIKEN and the Jackson Laboratory in accordance with the guideline established by the Institutional Animal Committees and maintained under bacterial flora specified.
(§2) NSG mice in the neonatal period were exposed to radiation (1.5 G) and then patient-derived MLL cells (MLL-AF9) were transplanted to the mice. After the presence of the human leukemia cells in the peripheral blood was confirmed by flow cytometry based on the presence of hCD45+CD19+, treatment of the mice (leukemia humanized mice) with dexamethasone (70 mg/kg IP daily) and/or RK-20449 (30 mg/kg IP BID, twice a day) or both was started.

[2] = test system: MLL cells (MLL-AF9 ALL cells); test: Secondary transplantation of MLL cells remaining after treatment into neonatal NSG mice; type: in vivo, mouse; conditions: cells taken from treated primary recipient, FIG. 7
Text: Finally, human leukemia cells remaining in the bone marrow were purified by sorting and transplanted to neonatal NSG mice (secondary transplantation).
MLL cells (MLL-AF9 ALL cells) were transplanted (primary transplant) to an immunodeficient mouse and a treatment with a combination of dexamethasone and RK-20449 was applied. Thereafter, MLL cells were taken from the mouse and transplanted to another immunodeficient mouse (secondary transplantation). The results are shown in the graphs as FIG. 7. The cases treated with dexamethasone alone and RK-20449 alone were used as controls (for comparison).

[3] = test system: MLL cells (MLL-AF9 ALL cell) in the bone marrow; test: Leukemia humanized mouse (MLL-AF9), human leukemia cells in bone marrow (flow cytometry, hCD45/DAB staining); type: in vivo; conditions: MLL-AF9 case; after treatment; FIG. 4
Text: as §1, §2
After the treatment, the mice were euthanized and the appearance frequency of human leukemia cells in the bone marrow was determined by flow cytometry. At the same time, one of the femur bones was fixed in PFA and […]-thin sections were prepared. […]

Compound: CN1CCN([C@H]2CC[C@H](n3cc(-c4ccc(Oc5ccccc5)cc4)c4c(N)ncnc43)CC2)CC1 [RK-20449, 7-[trans-4-(4-methyl-1-piperazinyl)cyclohexyl]-5-(4-phenoxyphenyl)-7H-pyrrolo[2,3-d]pyrimidin-4-amine]
- chimerism (percentage) of human leukemia cells in the mouse peripheral blood [1]: not easy to eradicate MLL by single use; also recorded: impossible to expect complete cure of MLL
- MLL cells in secondary transplantation recipient (proliferation after transplantation) [2]: MLL cells were present in significantly high percentages
- medicinal effect in the bone marrow (appearance frequency of human leukemia cells, flow cytometry) [3]: A sufficient therapeutic effect was not obtained
